{
  "source": "patent US20120270237A9",
  "about": "“METHODS FOR THE IDENTIFICATION OF KINASE INTERACTING MOLECULES AND FOR THE PURIFICATION OF KINASE PROTEINS” (Cellzone AG, priority 2009, published 2012)",
  "assay_in_all_cases": "Kinobeads competition binding, L-363 cell lysate",
  "set-up_in_all_cases": "endogenous in cells",
  "conditions_in_all_cases": "10 μM free compound, L-363 lysate",
  "key": {"[1]": {"target": "IRAK1 (Homo sapiens, UniProt P51617)", "sequence (P51617 whole entry)": "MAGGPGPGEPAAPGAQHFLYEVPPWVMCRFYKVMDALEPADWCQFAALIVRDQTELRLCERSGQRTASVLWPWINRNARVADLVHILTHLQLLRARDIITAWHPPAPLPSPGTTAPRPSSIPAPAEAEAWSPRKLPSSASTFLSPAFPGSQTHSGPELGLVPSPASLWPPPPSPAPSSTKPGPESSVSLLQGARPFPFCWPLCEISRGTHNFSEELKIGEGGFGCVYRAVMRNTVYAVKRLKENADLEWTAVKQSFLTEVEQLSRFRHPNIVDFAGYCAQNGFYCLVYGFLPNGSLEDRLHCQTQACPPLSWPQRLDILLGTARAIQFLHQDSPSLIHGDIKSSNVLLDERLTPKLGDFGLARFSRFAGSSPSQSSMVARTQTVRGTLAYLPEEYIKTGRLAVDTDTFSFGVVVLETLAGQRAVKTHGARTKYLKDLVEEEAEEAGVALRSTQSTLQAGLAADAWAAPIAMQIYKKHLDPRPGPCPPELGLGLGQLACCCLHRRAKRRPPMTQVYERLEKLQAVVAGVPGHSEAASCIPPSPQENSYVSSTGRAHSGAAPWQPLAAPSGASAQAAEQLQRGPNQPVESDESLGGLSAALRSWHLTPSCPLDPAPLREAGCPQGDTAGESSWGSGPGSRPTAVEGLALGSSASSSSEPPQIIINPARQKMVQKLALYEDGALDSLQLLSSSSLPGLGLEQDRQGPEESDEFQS", "procedure,_shortened": "(§1)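 Kinases remaining free after lysate exposure to 10 μM test compound were pulled down by beads carrying the immobilized compound and compared with a DMSO-treated aliquot via iTRAQ LC-MS/MS. Cells had received MG132 (20 μM, 3 h).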"}, "[2]": {"target": "T1, MAP3K2 (Homo sapiens, UniProt Q9Y2U5)", "T1 sequence (Q9Y2U5 1-619)": "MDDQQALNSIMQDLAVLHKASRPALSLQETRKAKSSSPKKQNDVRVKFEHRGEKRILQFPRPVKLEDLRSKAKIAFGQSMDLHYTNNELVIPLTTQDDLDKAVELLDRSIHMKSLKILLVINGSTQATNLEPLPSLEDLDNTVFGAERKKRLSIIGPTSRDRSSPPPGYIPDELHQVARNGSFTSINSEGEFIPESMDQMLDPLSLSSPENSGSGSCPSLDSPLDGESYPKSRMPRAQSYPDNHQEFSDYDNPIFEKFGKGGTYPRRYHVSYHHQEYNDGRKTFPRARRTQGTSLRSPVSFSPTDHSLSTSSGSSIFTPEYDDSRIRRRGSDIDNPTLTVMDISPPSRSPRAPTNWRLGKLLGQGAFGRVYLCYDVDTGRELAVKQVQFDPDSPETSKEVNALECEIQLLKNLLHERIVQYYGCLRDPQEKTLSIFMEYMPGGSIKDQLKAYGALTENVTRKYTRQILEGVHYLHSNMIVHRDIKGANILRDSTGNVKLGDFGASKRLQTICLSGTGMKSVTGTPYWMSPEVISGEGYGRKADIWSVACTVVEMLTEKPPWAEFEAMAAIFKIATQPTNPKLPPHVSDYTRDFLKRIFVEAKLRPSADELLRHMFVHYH", "procedure,_shortened": "as §1"}, "[3]": {"target": "T2, MAP3K5 (Homo sapiens, UniProt Q99683)", "T2 sequence (Q99683 1-1374)": "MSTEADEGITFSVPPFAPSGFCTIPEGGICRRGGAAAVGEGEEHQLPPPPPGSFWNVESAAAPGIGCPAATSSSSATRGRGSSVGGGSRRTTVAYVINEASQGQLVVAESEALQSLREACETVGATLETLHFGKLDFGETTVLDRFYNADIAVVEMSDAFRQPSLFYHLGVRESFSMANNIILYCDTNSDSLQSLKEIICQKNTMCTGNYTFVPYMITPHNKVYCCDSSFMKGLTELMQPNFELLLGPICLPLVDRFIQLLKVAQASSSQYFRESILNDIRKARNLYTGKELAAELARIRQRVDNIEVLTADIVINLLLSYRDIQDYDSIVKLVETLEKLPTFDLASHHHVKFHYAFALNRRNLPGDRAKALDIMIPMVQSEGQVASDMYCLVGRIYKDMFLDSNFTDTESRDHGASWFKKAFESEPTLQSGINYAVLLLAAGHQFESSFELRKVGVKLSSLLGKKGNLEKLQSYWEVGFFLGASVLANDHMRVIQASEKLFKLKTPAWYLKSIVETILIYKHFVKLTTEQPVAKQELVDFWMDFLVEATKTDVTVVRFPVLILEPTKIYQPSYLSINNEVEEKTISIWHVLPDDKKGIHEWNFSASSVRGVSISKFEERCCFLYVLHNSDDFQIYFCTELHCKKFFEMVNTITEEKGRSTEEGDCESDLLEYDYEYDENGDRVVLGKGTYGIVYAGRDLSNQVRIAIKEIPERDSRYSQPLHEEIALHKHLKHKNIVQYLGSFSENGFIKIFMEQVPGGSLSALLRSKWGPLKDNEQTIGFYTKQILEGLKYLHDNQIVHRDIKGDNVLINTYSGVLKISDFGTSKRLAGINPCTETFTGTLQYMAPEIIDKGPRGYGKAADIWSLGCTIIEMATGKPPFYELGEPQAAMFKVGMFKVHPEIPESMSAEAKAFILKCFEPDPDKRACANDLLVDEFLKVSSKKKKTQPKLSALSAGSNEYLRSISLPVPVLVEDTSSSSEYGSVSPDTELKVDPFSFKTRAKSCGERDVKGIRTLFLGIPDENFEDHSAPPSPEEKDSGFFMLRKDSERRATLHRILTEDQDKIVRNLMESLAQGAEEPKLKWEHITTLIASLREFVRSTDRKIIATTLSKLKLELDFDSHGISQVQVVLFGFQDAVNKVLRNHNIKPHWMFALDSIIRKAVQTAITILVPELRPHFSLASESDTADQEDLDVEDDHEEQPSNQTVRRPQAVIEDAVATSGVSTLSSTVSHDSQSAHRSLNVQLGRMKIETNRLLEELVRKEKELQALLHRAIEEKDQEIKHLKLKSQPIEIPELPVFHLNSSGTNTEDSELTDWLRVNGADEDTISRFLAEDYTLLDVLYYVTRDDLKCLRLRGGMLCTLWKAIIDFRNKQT", "procedure,_shortened": "as §1"}, "[4]": {"target": "MARK2 (Homo sapiens, UniProt Q7KZI7)", "sequence (Q7KZI7 whole entry)": "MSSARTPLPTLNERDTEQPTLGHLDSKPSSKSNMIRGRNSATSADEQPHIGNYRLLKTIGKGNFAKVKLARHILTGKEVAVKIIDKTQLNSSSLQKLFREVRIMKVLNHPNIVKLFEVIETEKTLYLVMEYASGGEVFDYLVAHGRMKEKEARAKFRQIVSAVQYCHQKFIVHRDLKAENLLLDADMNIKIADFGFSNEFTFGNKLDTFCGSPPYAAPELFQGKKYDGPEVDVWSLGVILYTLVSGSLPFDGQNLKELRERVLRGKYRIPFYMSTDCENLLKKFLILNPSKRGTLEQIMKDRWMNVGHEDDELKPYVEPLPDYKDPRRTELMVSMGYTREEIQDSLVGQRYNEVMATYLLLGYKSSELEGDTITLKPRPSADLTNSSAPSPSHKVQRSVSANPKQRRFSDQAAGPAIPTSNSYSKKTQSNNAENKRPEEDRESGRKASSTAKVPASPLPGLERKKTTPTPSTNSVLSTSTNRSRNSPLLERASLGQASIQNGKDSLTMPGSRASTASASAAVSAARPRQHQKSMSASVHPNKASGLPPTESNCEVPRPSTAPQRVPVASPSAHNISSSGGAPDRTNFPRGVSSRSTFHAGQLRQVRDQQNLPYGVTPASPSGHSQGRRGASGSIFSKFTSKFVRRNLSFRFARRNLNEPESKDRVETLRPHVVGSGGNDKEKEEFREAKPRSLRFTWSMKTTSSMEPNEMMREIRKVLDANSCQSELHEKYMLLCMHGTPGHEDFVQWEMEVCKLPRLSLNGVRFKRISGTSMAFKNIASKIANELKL", "procedure,_shortened": "as §1"}, "[5]": {"target": "JNK1 (Homo sapiens, UniProt P45983)", "sequence (P45983 whole entry)": "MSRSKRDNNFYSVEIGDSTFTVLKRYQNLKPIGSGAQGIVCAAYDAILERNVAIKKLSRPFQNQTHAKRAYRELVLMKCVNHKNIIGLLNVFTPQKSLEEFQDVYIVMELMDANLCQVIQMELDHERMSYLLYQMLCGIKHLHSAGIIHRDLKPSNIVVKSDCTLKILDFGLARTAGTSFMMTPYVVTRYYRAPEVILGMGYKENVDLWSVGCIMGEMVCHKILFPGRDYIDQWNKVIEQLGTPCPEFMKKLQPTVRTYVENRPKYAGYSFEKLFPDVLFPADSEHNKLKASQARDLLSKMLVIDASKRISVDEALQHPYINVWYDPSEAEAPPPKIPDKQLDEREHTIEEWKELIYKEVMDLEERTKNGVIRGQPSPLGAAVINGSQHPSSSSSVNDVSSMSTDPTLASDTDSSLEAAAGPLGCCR", "procedure,_shortened": "as §1"}, "[6]": {"target": "HPK1 (Homo sapiens, UniProt Q92918)", "sequence (Q92918 whole entry)": "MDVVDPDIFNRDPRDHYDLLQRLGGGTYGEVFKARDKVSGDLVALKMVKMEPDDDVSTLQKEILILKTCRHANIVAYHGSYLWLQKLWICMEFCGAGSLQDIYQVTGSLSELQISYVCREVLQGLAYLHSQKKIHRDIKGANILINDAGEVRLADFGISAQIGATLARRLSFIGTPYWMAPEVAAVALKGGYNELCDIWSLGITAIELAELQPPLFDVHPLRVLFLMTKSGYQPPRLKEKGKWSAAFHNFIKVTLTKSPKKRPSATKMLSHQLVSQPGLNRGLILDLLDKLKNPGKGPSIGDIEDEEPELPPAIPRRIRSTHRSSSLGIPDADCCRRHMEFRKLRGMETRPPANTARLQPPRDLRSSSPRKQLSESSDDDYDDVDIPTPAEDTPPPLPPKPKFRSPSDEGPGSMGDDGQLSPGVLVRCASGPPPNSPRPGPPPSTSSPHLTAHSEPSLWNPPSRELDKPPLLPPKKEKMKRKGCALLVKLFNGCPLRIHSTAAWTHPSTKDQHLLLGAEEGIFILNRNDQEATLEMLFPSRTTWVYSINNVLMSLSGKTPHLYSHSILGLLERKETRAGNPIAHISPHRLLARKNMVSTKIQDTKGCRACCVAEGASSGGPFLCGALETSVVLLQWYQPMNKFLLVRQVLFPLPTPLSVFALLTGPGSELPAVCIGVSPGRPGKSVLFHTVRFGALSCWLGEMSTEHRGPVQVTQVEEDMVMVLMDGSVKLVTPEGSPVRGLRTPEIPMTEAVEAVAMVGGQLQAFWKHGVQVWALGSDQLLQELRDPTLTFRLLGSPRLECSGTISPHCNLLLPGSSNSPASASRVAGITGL", "procedure,_shortened": "as §1"}, "[7]": {"target": "RSK2 (Homo sapiens, UniProt P51812)", "sequence (P51812 whole entry)": "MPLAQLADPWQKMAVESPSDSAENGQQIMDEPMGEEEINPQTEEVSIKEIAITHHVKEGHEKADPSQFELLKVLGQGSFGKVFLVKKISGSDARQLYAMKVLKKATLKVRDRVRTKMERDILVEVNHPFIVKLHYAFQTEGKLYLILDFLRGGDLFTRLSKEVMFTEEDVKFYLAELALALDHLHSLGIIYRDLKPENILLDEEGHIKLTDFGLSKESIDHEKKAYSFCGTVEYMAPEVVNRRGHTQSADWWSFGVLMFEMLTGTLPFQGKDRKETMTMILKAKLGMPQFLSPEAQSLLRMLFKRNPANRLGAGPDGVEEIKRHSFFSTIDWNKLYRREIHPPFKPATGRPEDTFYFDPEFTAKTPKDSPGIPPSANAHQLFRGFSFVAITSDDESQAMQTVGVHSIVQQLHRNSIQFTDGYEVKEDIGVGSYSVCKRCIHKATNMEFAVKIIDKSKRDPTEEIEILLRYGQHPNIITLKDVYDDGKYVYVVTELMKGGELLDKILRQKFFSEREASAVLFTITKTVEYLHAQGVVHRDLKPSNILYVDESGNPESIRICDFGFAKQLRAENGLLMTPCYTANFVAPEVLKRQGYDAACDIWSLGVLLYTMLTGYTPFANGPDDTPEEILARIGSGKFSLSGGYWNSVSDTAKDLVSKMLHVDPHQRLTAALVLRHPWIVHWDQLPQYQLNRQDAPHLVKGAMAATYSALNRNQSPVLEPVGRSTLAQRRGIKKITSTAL", "procedure,_shortened": "as §1"}, "[8]": {"target": "HIPK2 (Homo sapiens, UniProt Q9H2X6)", "sequence (Q9H2X6 whole entry)": "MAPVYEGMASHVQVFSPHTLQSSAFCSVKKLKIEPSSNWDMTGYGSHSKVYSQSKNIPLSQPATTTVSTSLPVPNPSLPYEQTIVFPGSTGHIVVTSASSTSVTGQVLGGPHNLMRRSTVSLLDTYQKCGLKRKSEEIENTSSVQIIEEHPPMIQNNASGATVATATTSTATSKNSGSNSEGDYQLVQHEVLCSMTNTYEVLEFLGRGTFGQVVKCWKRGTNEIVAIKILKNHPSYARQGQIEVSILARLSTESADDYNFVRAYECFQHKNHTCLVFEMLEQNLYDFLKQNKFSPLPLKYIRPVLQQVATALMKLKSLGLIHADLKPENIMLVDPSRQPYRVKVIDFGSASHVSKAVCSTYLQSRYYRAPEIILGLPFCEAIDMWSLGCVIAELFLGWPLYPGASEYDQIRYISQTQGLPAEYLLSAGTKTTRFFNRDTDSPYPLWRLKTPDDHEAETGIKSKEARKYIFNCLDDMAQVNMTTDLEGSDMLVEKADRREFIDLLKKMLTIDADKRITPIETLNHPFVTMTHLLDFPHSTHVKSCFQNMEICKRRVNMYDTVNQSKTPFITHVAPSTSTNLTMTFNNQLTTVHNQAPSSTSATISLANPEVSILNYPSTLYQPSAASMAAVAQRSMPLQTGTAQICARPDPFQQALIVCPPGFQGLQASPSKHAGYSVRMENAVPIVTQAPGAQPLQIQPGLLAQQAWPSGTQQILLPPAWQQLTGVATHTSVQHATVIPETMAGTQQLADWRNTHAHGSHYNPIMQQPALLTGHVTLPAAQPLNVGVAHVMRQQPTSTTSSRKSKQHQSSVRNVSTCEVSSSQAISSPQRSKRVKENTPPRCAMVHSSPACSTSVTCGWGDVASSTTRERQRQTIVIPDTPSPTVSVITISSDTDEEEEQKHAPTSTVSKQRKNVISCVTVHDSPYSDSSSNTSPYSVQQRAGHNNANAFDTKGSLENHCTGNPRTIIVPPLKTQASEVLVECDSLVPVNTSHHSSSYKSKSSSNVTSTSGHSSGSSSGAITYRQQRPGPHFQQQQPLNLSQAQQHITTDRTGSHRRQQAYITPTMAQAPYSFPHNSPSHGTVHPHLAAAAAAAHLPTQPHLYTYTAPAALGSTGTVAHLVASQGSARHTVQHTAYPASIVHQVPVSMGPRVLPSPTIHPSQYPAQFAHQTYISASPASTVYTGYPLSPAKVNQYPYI", "procedure,_shortened": "as §1"}, "[9]": {"target": "MYT1 (Homo sapiens, UniProt Q99640)", "procedure,_shortened": "as §1"}},
  "data": [
    {"smiles": "CS(=O)(=O)Nc1ccccc1Nc1nc(Nc2cccc(OCCN)c2)ncc1Cl", "note": "[CZC31326, N-(2-(2-(3-(2-aminoethoxy)phenylamino)-5-chloropyrimidin-4-ylamino)phenyl)methanesulfonamide]", "values": [
      {"measurement": "inhibition at 10 µM", "setting": "[1]", "value": 95.1, "unit": "%"},
      {"measurement": "inhibition at 10 µM", "setting": "[2]", "value": 96, "unit": "%"},
      {"measurement": "inhibition at 10 µM", "setting": "[3]", "value": 91.3, "unit": "%"},
      {"measurement": "inhibition at 10 µM", "setting": "[4]", "value": 97, "unit": "%"},
      {"measurement": "Competition %", "setting": "[5]", "value": 87, "unit": "%"},
      {"measurement": "inhibition at 10 µM", "setting": "[6]", "value": 98, "unit": "%"},
      {"measurement": "inhibition at 10 µM", "setting": "[7]", "value": 97.7, "unit": "%"},
      {"measurement": "inhibition at 10 µM", "setting": "[8]", "value": 95.6, "unit": "%"},
      {"measurement": "Competition %", "setting": "[9]", "value": 93.1, "unit": "%"}
    ]}
  ]
}
